Twelve compounds from article PMC7017600 (Antiviral research, 2019) can be followed below.

Broadly, the IC50 is the concentration that inhibits the measured activity by half. Low readings indicate greater potency, high ones weaker potency.

Series [1] has as its target T1, BPLF1 1–246 (Epstein-Barr virus, UniProt P03186).
Series [2] addresses T1, BPLF1 1–246. Put plainly: biochemical.
Series [3] concerns 293 EBV+ cells. Put plainly: Cell viability by trypan blue exclusion. The settings on record: 48 h, concentrations up to 10 μM.
Series [4] deals with T1, BPLF1 1–246. Put plainly: K63-linked ubiquitin chain cleavage assay. The following applies: 10 μM inhibitor, 25 nM BPLF1 1–246, 2 μg K63-linked chains, overnight 37 °C, SDS gel. The format is biochemical, Epstein Barr Virus (EBV).
Series [5] concerns EBV. In words: EBV infectious virus production, titered on Raji cells. The following applies: 293 EBV+ cells induced with BZLF1, 48 h, at the concentrations tested.
Series [6] concerns pool of cellular DUBs (293T cell lysate). In words: Cellular DUB activity in 293T total cell lysate, Ub-Rhodamine 110. It counts as biochemical. The settings on record: 10 μM suramin, 293T lysate.
Series [7] addresses T2, USP8c (Homo sapiens, UniProt P40818).
T2 sequence (P40818 777-1109 limits assumed): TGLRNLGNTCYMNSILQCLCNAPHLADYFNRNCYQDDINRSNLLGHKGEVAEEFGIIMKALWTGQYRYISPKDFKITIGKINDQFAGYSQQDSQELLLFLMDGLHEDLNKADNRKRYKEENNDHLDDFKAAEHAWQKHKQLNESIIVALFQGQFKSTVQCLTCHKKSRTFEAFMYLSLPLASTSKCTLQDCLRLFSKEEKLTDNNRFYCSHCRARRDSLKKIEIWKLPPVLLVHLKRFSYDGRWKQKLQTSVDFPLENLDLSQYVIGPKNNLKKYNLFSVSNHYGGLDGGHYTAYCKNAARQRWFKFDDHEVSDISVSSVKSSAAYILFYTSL
Put plainly: Suramin selectivity, Ub-Rhodamine 110 assay. The format is biochemical.

Series [8] concerns KSHV. The settings on record: suramin up to 10 μM; for KSHV genome copy number: qPCR of supernatant of reactivated cells.
Series [9] deals with KSHV ORF64 1–205 N terminal fragment (Human herpesvirus 8 type P, UniProt Q2HR64). In words: ORF64 DUB activity in Ub-Rhodamine 110 assay. The settings on record: 10 μM suramin, 30 minutes with Ub-Rhodamine 110.
Series [10] deals with Bap1 (Homo sapiens, UniProt Q92560). In words: Suramin selectivity, Ub-Rhodamine 110 assay. The format is biochemical.
Series [11] concerns the target PLPro (Severe acute respiratory syndrome coronavirus, UniProt P0C6X7). Put plainly: biochemical.
Series [12] has as its target T3, Atax3L (Homo sapiens, UniProt Q9H3M9).
T3 sequence (Q9H3M9 1-355): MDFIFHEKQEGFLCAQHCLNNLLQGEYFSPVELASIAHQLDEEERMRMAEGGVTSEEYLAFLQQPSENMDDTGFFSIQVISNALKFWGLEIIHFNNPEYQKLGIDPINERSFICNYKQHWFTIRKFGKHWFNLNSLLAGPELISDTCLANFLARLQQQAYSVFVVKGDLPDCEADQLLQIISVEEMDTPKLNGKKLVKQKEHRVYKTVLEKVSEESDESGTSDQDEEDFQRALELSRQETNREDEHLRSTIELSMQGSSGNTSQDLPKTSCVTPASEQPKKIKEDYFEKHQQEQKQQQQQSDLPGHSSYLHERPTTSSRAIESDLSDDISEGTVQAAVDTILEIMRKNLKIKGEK
In words: Suramin selectivity, Ub-Rhodamine 110 assay. The format is biochemical.

In series [13] the target is T4, UCH-L5 (Homo sapiens, UniProt Q9Y5K5).
T4 sequence (Q9Y5K5 1-329): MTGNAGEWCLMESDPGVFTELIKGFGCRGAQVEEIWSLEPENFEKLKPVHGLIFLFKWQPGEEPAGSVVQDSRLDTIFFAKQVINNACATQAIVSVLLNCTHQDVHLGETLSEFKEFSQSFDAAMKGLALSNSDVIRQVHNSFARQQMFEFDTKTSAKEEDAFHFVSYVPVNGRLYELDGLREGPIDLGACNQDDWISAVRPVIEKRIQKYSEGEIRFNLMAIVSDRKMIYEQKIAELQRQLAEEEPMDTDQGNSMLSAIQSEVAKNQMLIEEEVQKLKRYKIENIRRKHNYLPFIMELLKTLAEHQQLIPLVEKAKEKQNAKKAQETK
In words: Suramin selectivity, Ub-Rhodamine 110 assay. The format is biochemical.

Series [14] addresses T5, Cezanne (Homo sapiens, UniProt Q6GQQ9).
T5 sequence (Q6GQQ9 1-843): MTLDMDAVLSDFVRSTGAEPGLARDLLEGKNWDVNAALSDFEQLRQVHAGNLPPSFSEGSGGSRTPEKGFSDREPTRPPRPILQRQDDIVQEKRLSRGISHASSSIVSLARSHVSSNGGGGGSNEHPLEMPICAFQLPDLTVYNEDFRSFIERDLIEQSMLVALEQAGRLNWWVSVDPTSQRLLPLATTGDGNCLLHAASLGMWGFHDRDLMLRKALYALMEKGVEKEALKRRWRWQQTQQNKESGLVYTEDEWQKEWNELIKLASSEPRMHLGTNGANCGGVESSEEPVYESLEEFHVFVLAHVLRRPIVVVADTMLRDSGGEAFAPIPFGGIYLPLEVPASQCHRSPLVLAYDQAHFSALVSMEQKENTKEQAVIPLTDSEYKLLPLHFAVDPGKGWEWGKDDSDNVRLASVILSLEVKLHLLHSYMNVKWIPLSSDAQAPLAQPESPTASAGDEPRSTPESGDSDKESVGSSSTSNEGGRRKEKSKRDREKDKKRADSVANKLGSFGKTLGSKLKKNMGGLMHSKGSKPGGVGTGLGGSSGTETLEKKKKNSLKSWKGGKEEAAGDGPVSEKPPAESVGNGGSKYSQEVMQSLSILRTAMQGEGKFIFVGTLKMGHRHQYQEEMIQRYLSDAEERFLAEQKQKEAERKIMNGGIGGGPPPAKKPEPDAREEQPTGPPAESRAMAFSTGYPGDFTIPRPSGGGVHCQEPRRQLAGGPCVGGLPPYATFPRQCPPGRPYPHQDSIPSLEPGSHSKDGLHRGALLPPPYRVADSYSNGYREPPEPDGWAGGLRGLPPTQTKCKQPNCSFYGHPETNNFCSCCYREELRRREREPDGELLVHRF
Put plainly: Suramin selectivity, Ub-Rhodamine 110 assay. The format is biochemical.

Series [15] has as its target T6, UCH-L1 (Homo sapiens, UniProt P09936).
T6 sequence (P09936 1-223): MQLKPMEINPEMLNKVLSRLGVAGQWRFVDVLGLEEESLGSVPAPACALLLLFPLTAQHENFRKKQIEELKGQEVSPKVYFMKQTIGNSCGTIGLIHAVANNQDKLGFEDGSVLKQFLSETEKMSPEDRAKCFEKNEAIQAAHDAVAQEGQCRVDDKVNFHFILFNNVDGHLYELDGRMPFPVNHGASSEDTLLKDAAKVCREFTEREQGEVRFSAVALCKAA
Put plainly: Suramin selectivity, Ub-Rhodamine 110 assay. The format is biochemical.

Series [16] has as its target T1, BPLF1 1–246. In words: Suramin selectivity, Ub-Rhodamine 110 assay. It counts as biochemical, Epstein Barr Virus (EBV).
The target of series [17] is T7, JosD2 (Homo sapiens, UniProt Q8TAC2).
T7 sequence (Q8TAC2 1-188): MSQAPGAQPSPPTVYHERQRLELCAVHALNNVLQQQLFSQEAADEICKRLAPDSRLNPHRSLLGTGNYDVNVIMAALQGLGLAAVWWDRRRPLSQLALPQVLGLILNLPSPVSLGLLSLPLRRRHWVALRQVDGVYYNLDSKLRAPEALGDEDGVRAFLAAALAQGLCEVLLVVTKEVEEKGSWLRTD
In words: Suramin selectivity, Ub-Rhodamine 110 assay. The format is biochemical.

Where a name gives a salt, the structure may show the parent alone. Read-outs that look alike come from different tables or passages of the source. Some results are limits rather than exact numbers.

T1 sequence (P03186 1-246): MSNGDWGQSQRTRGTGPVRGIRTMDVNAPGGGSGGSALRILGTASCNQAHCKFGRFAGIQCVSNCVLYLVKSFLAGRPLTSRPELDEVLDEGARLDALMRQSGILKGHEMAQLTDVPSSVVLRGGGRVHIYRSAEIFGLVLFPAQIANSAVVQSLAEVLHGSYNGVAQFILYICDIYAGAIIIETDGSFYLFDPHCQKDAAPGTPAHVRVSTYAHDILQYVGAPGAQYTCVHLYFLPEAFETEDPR
Bap1, sequence (Q92560 whole entry): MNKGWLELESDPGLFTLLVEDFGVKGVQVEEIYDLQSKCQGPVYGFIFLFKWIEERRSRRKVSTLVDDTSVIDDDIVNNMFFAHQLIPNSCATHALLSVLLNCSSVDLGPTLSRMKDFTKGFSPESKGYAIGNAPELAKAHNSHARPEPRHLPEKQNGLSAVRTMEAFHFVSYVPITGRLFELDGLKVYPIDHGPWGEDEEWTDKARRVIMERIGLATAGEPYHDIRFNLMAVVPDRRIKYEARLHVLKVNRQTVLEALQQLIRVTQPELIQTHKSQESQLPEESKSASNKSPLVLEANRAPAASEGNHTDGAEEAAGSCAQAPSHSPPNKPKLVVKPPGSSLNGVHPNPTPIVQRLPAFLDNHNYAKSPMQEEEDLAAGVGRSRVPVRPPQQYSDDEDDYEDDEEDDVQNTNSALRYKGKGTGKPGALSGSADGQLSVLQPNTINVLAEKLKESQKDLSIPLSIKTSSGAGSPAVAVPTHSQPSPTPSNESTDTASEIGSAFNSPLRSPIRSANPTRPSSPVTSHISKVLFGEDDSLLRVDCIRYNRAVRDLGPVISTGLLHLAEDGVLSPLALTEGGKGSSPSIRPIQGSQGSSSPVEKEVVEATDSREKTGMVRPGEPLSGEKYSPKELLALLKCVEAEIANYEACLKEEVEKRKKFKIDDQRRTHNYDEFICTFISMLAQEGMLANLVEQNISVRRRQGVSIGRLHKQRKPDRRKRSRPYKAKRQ
KSHV ORF64 1–205 N terminal fragment, sequence (Q2HR64 1-205): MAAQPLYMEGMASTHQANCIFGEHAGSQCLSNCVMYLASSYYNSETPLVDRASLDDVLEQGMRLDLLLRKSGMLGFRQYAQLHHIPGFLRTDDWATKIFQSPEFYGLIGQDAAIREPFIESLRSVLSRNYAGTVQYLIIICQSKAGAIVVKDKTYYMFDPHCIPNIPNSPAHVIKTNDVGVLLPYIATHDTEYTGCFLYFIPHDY

In series [1], `NC(Cc1cc(O)c(O)cc1O)C(=O)O` (racemic) [6-Hyd roxy-DL-DOPA] returned an IC50 above 10 µM.

In turn, `O=C(O)C1=CC(=C(c2ccc(O)c(C(=O)O)c2)c2ccc(O)c(C(=O)O)c2)C=CC1=O` [Aurintricarboxylic acid] yielded an IC50 in series [2] of 3.3 µM.

Consider `OC[C@H]1O[C@H]([S-])[C@H](O)[C@@H](O)[C@@H]1O.[Au+]` [Aurothioglucose], for which the “cell growth or viability” value in series [3] is “not inhibit cell growth or viability”. The “inhibition of K63-linked ubiquitin chain cleavage” value in [4] is given as “inhibited K63-linked chain cleavage”. Half-maximal inhibition in series [1] (IC50) required 2.5 µM. Moreover, the “infectious virus production (in words)” value in series [5] is listed as “did not result in decreased virus production”.

For `Cc1cc2c(C(C)C)c(O)c(O)c(C=O)c2c(O)c1-c1c(C)cc2c(C(C)C)c(O)c(O)c(C=O)c2c1O` [Gossypol], the IC50 in series [2] is 3 µM.

Take `CN(N=O)c1ccc(O)c(O)c1` [Me-3,4-dephostatin]: the half-maximal inhibitory concentration (IC50) in [1] is above 10 µM.

`O=C(Nc1cccc(C(=O)Nc2ccc(S(=O)(=O)O)c3cc(S(=O)(=O)O)cc(S(=O)(=O)O)c23)c1)Nc1cccc(C(=O)Nc2ccc(S(=O)(=O)O)c3cc(S(=O)(=O)O)cc(S(=O)(=O)O)c23)c1` [NF 023]: the IC50 in [1] amounted to 6.1 µM. In other words, the single-digit micromolar range.

Turning to `O=C1C(SCCO)=C(SCCO)C(=O)c2ccccc21` [NSC 95397], the “inhibition of K63-linked ubiquitin chain cleavage” value in [4] is “inhibited K63-linked chain cleavage”. Moreover, the IC50 in series [1] came to 4.8 µM.

In the case of `Cc1nc(N=Nc2cc(S(=O)(=O)O)c3cc([N+](=O)[O-])cc(S(=O)(=O)O)c3c2)c(COP(=O)(O)O)c(C=O)c1O` [PPNDS tetrasodium], the half-inhibitory concentration (IC50) in series [1] is above 10 µM.

On to `C[C@]12C=CC(=O)C=C1CC[C@@H]1C2=CC[C@]2(C)[C@@H](C(=O)CN3CCN(c4cc(N5CCCC5)nc(N5CCCC5)n4)CC3)CC[C@@H]12` [U-74389G maleate], for which, in [1], the IC50 is 3.4 µM. That is a single-digit micromolar value.

With `CC1(C)CCC2=C(O1)c1ccccc1C(=O)C2=O` [beta-lapachone], the IC50 in series [2] was found to be 2.5 µM. Besides, in series [4], the “inhibition of K63-linked ubiquitin chain cleavage” value was “inhibited K63-linked chain cleavage”.

Regarding `Cc1ccc(C(=O)Nc2ccc(S(=O)(=O)O)c3cc(S(=O)(=O)O)cc(S(=O)(=O)O)c23)cc1NC(=O)c1cccc(NC(=O)Nc2cccc(C(=O)Nc3cc(C(=O)Nc4ccc(S(=O)(=O)O)c5cc(S(=O)(=O)O)cc(S(=O)(=O)O)c45)ccc3C)c2)c1` [suramin, Suramin sodium salt], the “inhibition of the pool of cellular DUBs” value in series [6] is reported as “about 50%”. For the same compound, the half-inhibitory concentration (IC50) in [7] is 3 µM; in series [2] it was 0.98 µM; in [10], 3.4 µM; in series [11], 3.2 µM; in [12], 2.6 µM; in [13] it was 1.5 µM. The concentration for half-maximal inhibition (IC50) in series [14] worked out at 1.6 µM; in [15], 3.6 µM; in [16] it was 3.3 µM; in [17], 28 µM. For the same compound, in series [8] (% reactivation of latently infected cells), the “KSHV reactivation from latency” value is on record as “no significant effect”. In addition, the “KSHV genome copy number” value was “no significant effect” in [8] and “does not inhibit genome copy production” in series [8] (listed as Suramin). The “KSHV infectious virus production” value in series [8] (supernatants 72 h post dox, infection of naïve 293 cells) is “no significant effect”. For the same compound, the “decrease in ORF64 DUB activity” value in series [9] is reported as above 80%. The “inhibition of K63-linked ubiquitin chain cleavage” value in series [4] was “inhibited K63-linked chain cleavage”.

With Ub-aldehyde, in series [1] (5 μM Ub-aldehyde (low signal control)), the “inhibition of BPLF1 1–246 DUB activity” value is “approximately 95%”.
